# Measurements reported in patent publication US10265367B2, “Synergistic antibacterial effects of magnolia bark extract and L-arginine, N-α-lauroyl ethyl ester on plaque biofilm” (WM. WRIGLEY JR. COMPANY, priority 2015, dated 2019).
# Experiments:
# [1] = tested on: salivary bacteria biofilm; experiment: In vitro biofilm assay (salivary bacteria on saliva-treated hydroxyapatite discs); assay type: cell-based
# Experimental: Biofilms were prepared and tested by a modified method from Guggenheim (Guggenheim B., Gierstein E., Schupbach P, Shapiro S., 2001. “Validation of an in vitro biofilm model of supragingival plaque” Journal Dental Research 80:363-370), which is herein incorporated by reference. Briefly, biofilms were grown by incubating salivary bacteria with saliva-treated hydroxyapatite (HA) discs in sterile 24 well cell culture plates. Using media supplemented with saliva (25% total volume), and transferring discs frequently during the growth phase, encouraged growth of a dental plaque-like biofilm. This was developed for up to 72 hours. The biofilm was exposed to the test compositions (set forth in Table 1) three times a day, for five minutes, on days two and three of the experiment. Biofilm was quantified turbidometrically and by spectrophometric absorption at 600 nm.
# The number of CFU for each biofilm was determined as follows. After vigorous shaking, 0.1 ml of the liquid from each biofilm cell was pipetted into 10 ml reverse osmosis (RO) H2O (100× dilution). The 100× dilution was shaken, and 0.1 ml was pipetted into 10 ml RO H2O (10,000× dilution). […] After the growth period, the number of colonies of bacteria growing on each plate were counted. […]
# The IC40 of MBE was determined, and was used as a positive control concentration.
# salivary bacteria = experiment: Inhibition of biofilm formation on saliva-precoated pegs (Calgary device), MBIC/FBIC; assay type: cell-based
# Experimental: 80 ml of saliva was collected from 4 donors and centrifuged at 3800 rpm to remove food debris. 15 ml supernatant was removed and mixed with an equal volume of 1×PBS. The mixture was then filter sterilized to collect saliva proteins that were used to precoat suspended pegs in the lid of the Calgary device for 3 hours. Meanwhile, the remaining saliva was centrifuged at 10,000 rpm to collect bacteria for biofilm inoculum. After centrifugation, the pellet was resuspended to an OD600 of 0.05 and premixed with defined concentrations of LAE-CF (99% purity, from Vedeqsa), MBE and a combination of the two actives at predetermined ratios. The actives and inoculum were added to the saliva precoated pegs and incubated overnight for at least 16 hours to allow for biofilm formation. Controls included growth (no actives) and media only (no bacteria).
# The efficacy of the LAE and MBE synergistic effects are shown in the minimal biofilm inhibitory concentrations (MBIC) and fractional biofilm inhibitory concentration (FBIC) for the two actives. The FBIC was calculated according to the following formula: FBIC=[QA/Qa+QB/Qb] where
# QA=the MBIC of component A combined with component B.
# Qa=the MBIC of component A alone.
# QB=the MBIC of component B combined with component A.
# Qb=the MBIC of component B alone. […]
structure (smiles),measurement,setting,value
"CCCCCCCCCCCC(=O)N[C@@H](CCCNC(=N)N)C(=O)OCC [LAE, L-arginine, N^α-lauroyl ethyl ester]",inhibition at 1000 ppm,"[1]; 5 min, 1000 ppm, biofilm exposed 5 min three times a day on days 2 and 3",82%
same,percent inhibition compared to the positive control,[1]; positive control = MBE at IC40,not better than the positive control
same,FBIC (fractional biofilm inhibitory concentration),"salivary bacteria; FBIC=QA/Qa+QB/Qb, <1 synergistic",1
same,MBIC (minimal biofilm inhibitory concentration),"salivary bacteria; active alone, overnight at least 16 hours",125 ppm
